Source: patent US5686486A, “4-hydroxy-benzopyran-2-ones and 4-hydroxy-cycloalkyl[b]pyran-2-ones useful to treat retroviral infections” (priority 1995, dated 1997)
Where a name gives a salt, the structure may show the parent alone.

Biological target: HIV-1 protease (Human immunodeficiency virus type 1 group M subtype B, UniProt P04585)
Assay: biochemical
Details: for inhibition at 1 µM: read-out: HIV-1 Protease % Inhib, dose 1.000 uM; for inhibition at 10 µM: read-out: HIV-1 Protease % Inhib, dose 10.000 uM; for inhibition at 100 µM: read-out: HIV-1 Protease % Inhib, dose 100.000 uM; for IC50: HIV-1 Protease IC50; for HIV-1 Protease % Inhib: dose 100.000 uM
Experimental: The HIV protease screening assay is based on fluorescently labeled substrate which can be resolved from nonlabeled cleavage product using special beads coated with streptavidin. The substrate is biotinylated at the amino terminal arginine and fluorescently labeled with fluorescein isothiocynate (FITC) at the carboxyl terminal lysine. This assay has been employed to detect novel, nonpeptidic inhibitors of HIV-1 protease. Substrate (20 μl of 0.2 μM), sample (10 μl of desired concentration), and enzyme (10 μl of 0.1 μM) are added to a 96 well pandex plate. The assay is run in 0.1M sodium acetate buffer at pH 5.5 in the presence of 1.0M sodium chloride and 0.05% NP-40 with incubated in the dark for one hour at room temperature. Strepavidin coated polystyrene beads {40 μl of 0.1% (w/v)} are added and the plate is incubated in the dark for an additional half hour. The labeled cleavage product is separated from the unreacted substrate via filtration and is read on the Idexx screen machine. The data are analyzed by appropriate computer algorithms to ascertain percent inhibition values.

Structure (SMILES) | inhibition at 1 µM | inhibition at 10 µM | inhibition at 100 µM | IC50 | HIV-1 Protease % Inhib
CC(c1cccc(C(=O)NC2c3ccccc3CC2O)c1)c1c(O)c2ccccc2oc1=O (centres unmarked) [Example 29, Benzamide, N-(2,3-dihydro-2-hydroxy-1H-inden-1-yl)-3-[1-(4-hydroxy-2-oxo-2H-1-benzopyran-3-yl)ethyl]-] | < 10% | 54.2% | 98.4% | – | –
CCC(C)C(NC(=O)c1cccc(C(C)c2c(O)c3ccccc3oc2=O)c1)C(=O)NCc1ccccn1 (centres unmarked) [Example 30, Benzamide, 3-[1-(4-hydroxy-2-oxo-2H-1-benzopyran-3-yl)ethyl]-N-[2-methyl-1-[[(2-pyridinylmethyl)amino]carbonyl]butyl]-] | < 10% | 65.3% | 109% | – | –
CCCCNC(=O)c1cccc(C(C)c2c(O)c3ccccc3oc2=O)c1 (centres unmarked) [Example 31, Coumarin, 3-[1-[3-[(butylamino)carbonyl]phenyl]ethyl]-4-hydroxy-] | < 10% | < 10% | 53.7% | – | –
CC(c1cccc(C(=O)NCC(=O)N2CCOCC2)c1)c1c(O)c2ccccc2oc1=O (centres unmarked) [Example 32, Coumarin, 4-hydroxy-3-[1-[3-[[[[(4-morpholino)carbonyl]methyl]amino]carbonyl]phenyl]ethyl]-] | < 10% | < 10% | 46.5% | – | –
CC(c1cccc(C(=O)NCC(=O)NCc2nc3ccccc3[nH]2)c1)c1c(O)c2ccccc2oc1=O (centres unmarked) [Example 33, Coumarin, 3-[1-[3-[[[[[[(2-benzimidazolyl)methyl]amino]carbonyl]methyl]amino]carbonyl]phenyl]ethyl]4-hydroxy-] | < 10% | 11.2% | 77.4% | – | –
O=c1oc2ccccc2c(O)c1C1CCCc2ccccc21 (centres unmarked) [Example 34, 4-hydroxy-3-[1-(1,2,3,4-tetrahydro)naphthyl]-coumarin] | < 10% | 50.3% | 91.1% | 3.6 µM | –
O=c1oc2ccccc2c(O)c1C1CCc2ccccc21 (centres unmarked) [Example 35, 4-hydroxy-3-[1-indanyl]-coumarin] | < 10% | 19.6% | 92.6% | 6.8 µM | –
CCC(c1ccc(F)cc1)c1c(O)c2ccccc2oc1=O (stereo not drawn) [Example 36, Coumarin, 3-(α-ethyl-p-fluorobenzyl)4-hydroxy-] | < 10% | 16.9% | 81.6% | – | –
CCCC(c1ccccc1)c1c(O)c2ccc(OC)cc2oc1=O (stereo not drawn) [Example 37, Coumarin, 7-methoxy-3-(α-propylbenzyl)4-hydroxy-] | < 10% | 59.5% | 103% | 7 µM | –
COc1ccc2c(O)c(C(c3ccccc3)C3CC3)c(=O)oc2c1 (centres unmarked) [Example 38, 3-cyclopropylphenylmethyl-4-hydroxy-7-methoxy coumarin] | 18.6% | 83.2% | 93.4% | 2.8 µM | –
CC(C)(c1ccccc1)c1c(O)c2ccccc2oc1=O [Example 39, 3-(α,α-dimethylbenzyl)4-hydroxy coumarin] | 13.8% | 69.6% | 82% | 5 µM | –
CCC(c1cccc(N)c1)c1c(O)c2ccccc2oc1=O (centres unmarked) [Example 40, Coumarin, 3-[1-(3-aminophenyl)propyl]4-hydroxy-, monohydrochloride-] | < 10% | < 10% | 51.3% | – | –
CCC(c1cccc(NC(=O)COc2cccc3ccccc23)c1)c1c(O)c2ccccc2oc1=O (centres unmarked) [Example 41, Coumarin, 4-hydroxy-3-[1-[3-[[(1-naphthoxymethyl)carbonyl]amino]phenyl]propyl]-] | < 10% | 32.6% | 80.6% | – | –
CCC(c1cccc(NC(=O)C(NC(=O)OC(C)(C)C)C(C)C)c1)c1c(O)c2ccccc2oc1=O (centres unmarked) [Example 42, Carbamic acid, [1-[[[3-[1-(4-hydroxy-2-oxo-2H-1-benzopyran-3-yl)propyl]phenyl]amino]carbonyl]-2-methylpropyl]-, 1,1-dimethylethyl ester] | 11.5% | 75.2% | 112% | 9.9 µM | 102.8%
CCC(c1cccc(NC(=O)CNC(=O)OC(C)(C)C)c1)c1c(O)c2ccccc2oc1=O (centres unmarked) [Example 43, Coumarin, 4-hydroxy-3-[1-[3-[[[[(1,1-dimethylethoxycarbonyl)amino]methyl]carbonyl]amino]phenyl]propyl]-] | 28.4% | 103% | 122% | 2.1 µM | –
CCCCC(=O)Nc1cccc(C(CC)c2c(O)c3ccccc3oc2=O)c1 (centres unmarked) [Example 44, Coumarin, 4-hydroxy-3-[1-[3-[(1-oxopentyl)amino]phenyl]propyl]-] | < 10% | < 10% | 55.6% | – | –
CCC(c1cccc(NC(=O)c2ccccn2)c1)c1c(O)c2ccccc2oc1=O (centres unmarked) [Example 45, Coumarin, 4-hydroxy-3-[1-[3-[[(2-pyridinyl)carbonyl]amino]phenyl]propyl]-] | < 10% | 28.5% | 90.9% | – | –
CCC(c1cccc(NC(=O)CN)c1)c1c(O)c2ccccc2oc1=O (centres unmarked) [Example 46, Coumarin, 3-[1-[3-[[(aminomethyl)carbonyl]amino]phenyl]propyl]4-hydroxy-, trifluoroacetate (salt)] | 22.1% | 96.3% | 116% | 4.2 µM | 107%
CCC(c1cccc(NC(=O)CC(C)(C)NC(=O)OC(C)(C)C)c1)c1c(O)c2ccccc2oc1=O (centres unmarked) [Example 47, Coumarin, 4-hydroxy-3-[1-[3-[[1-oxo-3-methyl-3-[(1,1-dimethylethoxycarbonyl)amino]butyl]amino]phenyl]propyl]-] | < 10% | < 10% | 53% | – | –
CCC(c1cccc(NC(=O)CC(C)(C)N)c1)c1c(O)c2ccccc2oc1=O (centres unmarked) [Example 48, Coumarin, 3-[1-[3-[(3-amino-3-methyl-1-oxobutyl)amino]phenyl]propyl]-4-hydroxy-, trifluoroacetate (salt)] | < 10% | < 10% | 43.3% | – | –
CCC(CC(=O)Nc1cccc(C(CC)c2c(O)c3ccccc3oc2=O)c1)c1ccccc1 (centres unmarked) [Example 49, Coumarin, 4-hydroxy-3-[1-[3-[(1-oxo-3-phenylpentyl)amino]phenyl]propyl]-] | < 10% | 21.9% | 60.3% | – | –
CCC(c1cccc(NC(=O)CCCNC(=O)OC(C)(C)C)c1)c1c(O)c2ccccc2oc1=O (centres unmarked) [Example 50, Coumarin, 4-hydroxy-3-[1-[3-[[4-[(1,1-dimethylethoxycarbonyl)amino]-1-oxobutyl]amino]phenyl]propyl]-] | 33.5% | 80.3% | 95.5% | 2.3 µM | –
CCC(c1cccc(NC(=O)CC[C@H](NC(=O)OC(C)(C)C)C(=O)OC(C)(C)C)c1)c1c(O)c2ccccc2oc1=O (stereo partly drawn) [Example 51, L-Glutamine, N2-[(1,1-dimethylethoxy)carbonyl]-N-[3-[1-(4-hydroxy-2-oxo-2H-1-benzopyran-3-yl)propyl]phenyl]-, 1,1-dimethylethyl ester] | < 10% | < 10% | 39.6% | – | –
CCC(c1cccc(NC(=O)CC[C@H](N)C(=O)O)c1)c1c(O)c2ccccc2oc1=O (stereo partly drawn) [Example 52, L-Glutamine, N-[3-[1-(4-hydroxy-2-oxo-2H-1-benzopyran-3-yl)propyl]phenyl]-, mono(trifluoroacetate) (salt)] | 26.8% | 81.5% | 120% | 3.1 µM | –
CCC(c1cccc(NC(=O)CCCc2ccccc2)c1)c1c(O)c2ccccc2oc1=O (centres unmarked) [Example 53, Coumarin, 4-hydroxy-3-[1-[3-[(i-oxo-4-phenylbutyl)amino]phenyl]propyl]-] | < 10% | < 10% | 71.8% | – | –
CCC(c1cccc(NC(=O)CCCCc2ccccc2)c1)c1c(O)c2ccccc2oc1=O (centres unmarked) [Example 54, Coumarin, 4-hydroxy-3-[1-[3-[(1-oxo-5-phenylpentyl)amino]phenyl]propyl]-] | < 10% | – | – | – | –
CCC(c1cccc(NC(=O)Cc2ccccc2)c1)c1c(O)c2ccccc2oc1=O (centres unmarked) [Example 55, Coumarin, 4-hydroxy-3-[1-[3-[[(phenylmethyl)carbonyl]amino]phenyl]propyl]-] | < 10% | < 10% | 72% | – | –
CCC(c1cccc(NC(=O)CCC2CCCCC2)c1)c1c(O)c2ccccc2oc1=O (centres unmarked) [Example 56, Coumarin, 3-[1-[3-[(3-cyclohexyl-1-oxopropyl)amino]phenyl]propyl]-4-hydroxy-] | < 10% | < 10% | 49.5% | – | –
CCC(c1cccc(NC(=O)CCc2ccccc2)c1)c1c(O)c2ccc(OC)cc2oc1=O (centres unmarked) [Example 57, Coumarin, 4-hydroxy-7-methoxy-3-[1-[3-[(1-oxo-3-phenylpropyl)amino]phenyl]propyl]-] | 17.6% | 94.4% | 99.3% | 2.8 µM | –
